# Data reported in US11951149B2, “Intranasal vasopressin treatment of social deficits in autism” (The Board of Trustees of the Leland Stanford Junior …, priority 2018, dated 2024).
# Assays:
# children with ASD [1] = assay: Adverse events assessed by the DOTES and OAS, 4-week trial; type: in vivo, human
# Description: (§1) Commercially available injectable sterile AVP was used in this study. It was initially purchased from JHP Pharmaceuticals (Rochester, MI), which was subsequently acquired by Par Sterile Products (Chestnut Ridge, NY) in 2014. The placebo solution was prepared by Koshland Pharm (San Francisco, CA) and consisted of ingredients used in the active solution except the AVP compound. A pharmacist transferred 25 mL of AVP (20 International Units (IU)/mL) or placebo solutions into sterile amber glass bottles with metered (0.1 mL/per puff) nasal spray applicators to ensure that the AVP and placebo applicators were visually indistinguishable to the research team. These applicators were coded and given to the Stanford Health Care's Investigational Drug Service (IDS) for refrigerated storage (2-8° C.) and subsequent dispensing. Following the first AVP dose (see below), the dose escalation regimen for all participants involved administration of 4 IU twice daily (or BID) of AVP during week 1 and 8 IU BID of AVP during week 2. Participants aged 6 to 9.5 years then received 12 IU BID of AVP during weeks 3 and 4, while participants aged 9.6 to 12.92 years received 16 IU BID of AVP during weeks 3 and 4.
# (§2) Parents were trained in the clinic by research staff to administer the nasal spray to their child. The first dose was administered in the ADDC under the direct supervision of the research team (with the first dose being 12 IU for participants aged 6 to 9.5 years and 16 IU for participants aged 9.6 to 12.92 years). Vital signs were monitored before, and 20 minutes after, initial single-dose nasal spray administration to monitor for acute, unanticipated reactions to AVP. Participants' parents then received two 25 mL nasal spray bottles containing either AVP or placebo for 4 weeks of at-home dispensing (as described above), for which they were responsible for their child's continued twice daily dosing. Parents were instructed to keep the bottles refrigerated with only brief room temperature excursions (i.e., for dosing). Participants underwent weekly safety/tolerability assessments in the clinic to monitor for adverse events. On completion of the 4-week treatment period, behavioral data, safety/tolerability data, and blood samples were again collected. After completion of the trial, participants randomized to the placebo group were invited to participate in an optional open-label 4-week AVP treatment phase to ensure that all children had the opportunity to receive AVP treatment.
# (§3) Throughout the trial, safety and tolerability were assessed weekly using the following measurements: vital signs, 12-lead electrocardiogram, clinical chemistry labs, and height and weight. Side effects were evaluated with the DOTES (51), and modified to assess potential side effects that might be related to AVP such as hyponatremia/water intoxication. Finally, based on animal studies showing that AVP can induce aggressive behavior under some circumstances (39, 40), the OAS was used to monitor for observable aggressive or violent behavior in this trial (52).
# One-way LS-GLMs were used to test the change from baseline between the AVP and placebo treatment groups following 4-week treatment for adverse events and safety measures. Fisher's exact Test was used to test for differences between treatment conditions for participant characteristics and concomitant medications. Suitable transformations were applied as needed.
# [2] = intranasal administration; cited from earlier work
# children with ASD [3] = assay: Clinical chemistry, change from baseline, 4-week trial; type: in vivo, human; conditions: after 4-week treatment
# Description: as §1, §2, §3
# Whole blood was drawn from the child's antecubital region by a pediatric phlebotomist using standard protocols at Lucile Packard Children's Hospital outpatient laboratory. A portion of the sample was collected per standard laboratory protocols and sent for clinical chemistry analysis. To evaluate AVP concentrations, whole blood was also collected into chilled EDTA-treated vacutainer tubes and immediately placed on wet ice. Samples were promptly centrifuged (1600×g at 4° C. for 15 min), the plasma fraction aliquoted into polypropylene tubes, and flash-frozen on dry ice. Whole blood was also collected into PAXgene RNA tubes (Qiagen, CA) and processed per manufacturer instruction to evaluate neuropeptide receptor gene expression [i.e., oxytocin receptor (OXTR) and AVPR1A]. All samples were stored at −80° C. until quantification. […]
# children with ASD [4] = assay: Vital signs, change from baseline, 4-week trial; type: in vivo, human; conditions: after 4-week treatment
# Description: as §1, §2, §3
# (§4) Treatment effect generalizability was evaluated using: 1) the RBS-R which measures a comprehensive list of repetitive and stereotyped behaviors (61); and 2) The Spence Children's Anxiety Scale which assesses the severity of trait anxiety symptoms broadly in line with DSM dimensions of anxiety disorder (62). Anxiety was selected as an outcome measure due to its significant comorbidity with ASD (63). Finally, safety and tolerability were evaluated using: 1) the DOTES (51); and 2) change from baseline in electrocardiogram, clinical chemistry labs, vital signs (i.e., blood pressure, heart rate, temperature), as well as height and weight.
# (§5) One-way LS-GLMs were used to test the change from baseline between the AVP and placebo treatment groups following 4-week treatment for adverse events and safety measures. […]
# children with ASD [5] = assay: 12-lead electrocardiogram, change from baseline, 4-week trial; type: in vivo, human; conditions: after 4-week treatment
# Description: as §1, §2, §3, §4, §5
# children with ASD [6] = assay: Height and weight, change from baseline, 4-week trial; type: in vivo, human; conditions: after 4-week treatment
# Description: Commercially available injectable sterile AVP was used in this study. It was initially purchased from JHP Pharmaceuticals (Rochester, MI), which was subsequently acquired by Par Sterile Products (Chestnut Ridge, NY) in 2014. The placebo solution was prepared by Koshland Pharm (San Francisco, CA) and consisted of ingredients used in the active solution except the AVP compound. A pharmacist transferred 25 mL of AVP (20 International Units (IU)/mL) or placebo solutions into sterile amber glass bottles with metered (0.1 mL/per puff) nasal spray applicators to ensure that the AVP and placebo applicators were visually indistinguishable to the research team. […]
# Parents were trained in the clinic by research staff to administer the nasal spray to their child. […] Vital signs were monitored before, and 20 minutes after, initial single-dose nasal spray administration to monitor for acute, unanticipated reactions to AVP. […]
# Throughout the trial, safety and tolerability were assessed weekly using the following measurements: vital signs, 12-lead electrocardiogram, clinical chemistry labs, and height and weight. Side effects were evaluated with the DOTES (51), and modified to assess potential side effects that might be related to AVP such as hyponatremia/water intoxication. […]
# [7] = tested on: high-functioning adults with ASD; conditions: single dose intravenous, cited from earlier work
# ASD in children = assay: Intranasal administration of desmopressin in children with ASD; type: in vivo, human
# [8] = Dermatological, 4-week treatment, N = 17
# [9] = Gastrointestinal, 4-week treatment, N = 17
# [10] = General, 4-week treatment, N = 17
# [11] = HEENT, 4-week treatment, N = 17
# [12] = Neurological/Psychiatric, 4-week treatment, N = 17
# [13] = Renal, 4-week treatment, N = 17
# [14] = post hoc sub-test, not corrected for multiple comparisons
structure (smiles),measurement,setting,value
"NC(=O)CC[C@@H]1NC(=O)[C@H](Cc2ccccc2)NC(=O)[C@H](Cc2ccc(O)cc2)NC(=O)[C@@H](N)CSSC[C@@H](C(=O)N2CCC[C@H]2C(=O)N[C@@H](CCCN=C(N)N)C(=O)NCC(N)=O)NC(=O)[C@H](CC(N)=O)NC1=O [AVP, arginine vasopressin]",Tolerability,children with ASD [1]; 4-week intranasal treatment,well tolerated with minimal adverse effects
same,"Adverse event rates compared to placebo-treated group (DOTES, OAS)","children with ASD [1]; 4-week treatment, parent ratings",no significant differences
same,Adverse event: Bug bite,children with ASD [1]; [8],1 (6%) counts and percentages
same,Adverse event: Skin burn,children with ASD [1]; [8],0 (0%) counts and percentages
same,Adverse event: Skin rash,children with ASD [1]; [8],1 (6%) counts and percentages
same,Adverse event: Constipation,children with ASD [1]; [9],1 (6%) counts and percentages
same,Adverse event: Decreased appetite,children with ASD [1]; [9],4 (24%) counts and percentages
same,Adverse event: Diarrhea,children with ASD [1]; [9],0 (0%) counts and percentages
same,Adverse event: Nausea/vomiting,children with ASD [1]; [9],2 (12%) counts and percentages
same,Adverse event: Body ache,children with ASD [1]; [10],1 (6%) counts and percentages
same,Adverse event: Cough,children with ASD [1]; [10],1 (6%) counts and percentages
same,Adverse event: Fever,children with ASD [1]; [10],2 (12%) counts and percentages
same,Adverse event: Blurred vision,children with ASD [1]; [11],1 (6%) counts and percentages
same,Adverse event: Cold sore,children with ASD [1]; [11],0 (0%) counts and percentages
same,Adverse event: Dry mouth,children with ASD [1]; [11],1 (6%) counts and percentages
same,Adverse event: Ear infection,children with ASD [1]; [11],0 (0%) counts and percentages
same,Adverse event: Nasal congestion,children with ASD [1]; [11],3 (18%) counts and percentages
same,Adverse event: Runny nose,children with ASD [1]; [11],0 (0%) counts and percentages
same,Adverse event: Sore throat,children with ASD [1]; [11],0 (0%) counts and percentages
same,Adverse event: Aggression,children with ASD [1]; [12],1 (6%) counts and percentages
same,Adverse event: Akathisia,children with ASD [1]; [12],1 (6%) counts and percentages
same,Adverse event: Decreased motor activity,children with ASD [1]; [12],1 (6%) counts and percentages
same,Adverse event: Depressive affect,children with ASD [1]; [12],2 (12%) counts and percentages
same,Adverse event: Dizziness,children with ASD [1]; [12],0 (0%) counts and percentages
same,Adverse event: Drowsiness,children with ASD [1]; [12],1 (6%) counts and percentages
same,Adverse event: Excitement/agitation,children with ASD [1]; [12],4 (24%) counts and percentages
same,Adverse event: Head banging,children with ASD [1]; [12],1 (7%) counts and percentages
same,Adverse event: Headache,children with ASD [1]; [12],2 (12%) counts and percentages
same,Adverse event: Increased motor activity,children with ASD [1]; [12],4 (24%) counts and percentages
same,Adverse event: Insomnia,children with ASD [1]; [12],4 (24%) counts and percentages
same,Adverse event: Lethargy/tiredness,children with ASD [1]; [12],0 (0%) counts and percentages
same,Adverse event: Bed wetting,children with ASD [1]; [13],1 (6%) counts and percentages
same,Adverse event: Increased urination,children with ASD [1]; [13],1 (6%) counts and percentages
same,Cerebrospinal fluid (CSF) concentrations of measured AVP,[2],elevated
same,Change from baseline LSM +/− SE: Anion Gap,children with ASD [3],-0.65 ± 0.78 mmol/L
same,Change from baseline LSM +/− SE: CO2,children with ASD [3],-0.12 ± 0.57 mmol/L
same,Change from baseline LSM +/− SE: Calcium,children with ASD [3],0.047 ± 0.07 mg/dL
same,Change from baseline LSM +/− SE: Chloride,children with ASD [3],1.0 ± 0.56 mmol/L
same,Change from baseline LSM +/− SE: Creatine,children with ASD [3],-0.017 ± 0.03 mg/dL
same,Change from baseline LSM +/− SE: Glucose,children with ASD [3],2.2 ± 4.41 mg/dL
same,Change from baseline LSM +/− SE: Osmolality (Serum),children with ASD [3],0.18 ± 1.01 mOsm/kg
same,Change from baseline LSM +/− SE: Osmolality (Urine),children with ASD [3],8.5 ± 82.6 mOsm/kg
same,Change from baseline LSM +/− SE: Potassium,children with ASD [3],0.15 ± 0.11 mmol/L
same,Change from baseline LSM +/− SE: Sodium,children with ASD [3],0.24 ± 0.63 mmol/L
same,Change from baseline LSM +/− SE: Urea Nitrogen,children with ASD [3],-1.3 ± 0.78 mg/dL
same,Changes from baseline in clinical chemistry,children with ASD [3],No significant changes from baseline
same,Change from baseline LSM +/− SE: BP Change Diastolic (Standin-Sitting),children with ASD [4],−3.1 ± 2.65
same,Change from baseline LSM +/− SE: BP Change Systolic (Standing-Sitting),children with ASD [4],−3.6 ± 2.76
same,"Change from baseline LSM +/− SE: BP, Diastolic, Sitting",children with ASD [4],3.2 ± 2.09 mmHg
same,"Change from baseline LSM +/− SE: BP, Diastolic, Standing",children with ASD [4],0.1 ± 2.31 mmHg
same,"Change from baseline LSM +/− SE: BP, Systolic, Sitting",children with ASD [4],5.5 ± 2.53 mmHg
same,"Change from baseline LSM +/− SE: BP, Systolic, Standing",children with ASD [4],1.9 ± 2.38 mmHg
same,Change from baseline LSM +/− SE: Pulse change,children with ASD [4],2.1 ± 2.75 beats per minute
same,Change from baseline LSM +/− SE: Pulse sitting,children with ASD [4],1.9 ± 3.87 beats per minute
same,Change from baseline LSM +/− SE: Pulse standing,children with ASD [4],4.0 ± 3.57 beats per minute
same,Change from baseline LSM +/− SE: Temperature,children with ASD [4],0.2 ± 0.17 ° F.
same,Changes from baseline in vital signs,children with ASD [4],No significant changes from baseline
same,Changes from baseline in 12-lead electrocardiogram,children with ASD [5],No significant changes from baseline
same,Change from baseline LSM +/− SE: Bazett’s Corrected QT Interval,children with ASD [5]; electrocardiogram,-1.9 ± 5.07 ms
same,Change from baseline LSM +/− SE: Heart Rate,children with ASD [5]; electrocardiogram,−2.5 ± 3.75 bpm
same,Change from baseline LSM +/− SE: P Duration,children with ASD [5]; electrocardiogram,-2.6 ± 5.76 ms
same,Change from baseline LSM +/− SE: PR Intervals,children with ASD [5]; electrocardiogram,-4.6 ± 6.40 ms
same,Change from baseline LSM +/− SE: QRS Interval,children with ASD [5]; electrocardiogram,0.4 ± 1.55 ms
same,Change from baseline LSM +/− SE: QT Interval,children with ASD [5]; electrocardiogram,3.5 ± 5.53 ms
same,Change from baseline LSM +/− SE: Height,children with ASD [6],0.8 ± 0.23 centimeters
same,Changes from baseline in physiological measures,children with ASD [6],No significant changes from baseline
CN(C)CCn1cc(C(=O)N2CCC3(CC2)OCc2ccccc23)c2ccc(Cl)cc21 [RG7713],Improvements on overall composite tests,[7],non-significant
same,Ability to detect lust on an affective speech recognition task,[7]; [14],reduced
same,Biological motion orienting preference,[7]; [14],increased
"NC(=O)CC[C@@H]1NC(=O)[C@H](Cc2ccccc2)NC(=O)[C@H](Cc2ccc(O)cc2)NC(=O)CCSSC[C@@H](C(=O)N2CCC[C@H]2C(=O)N[C@H](CCCN=C(N)N)C(=O)NCC(N)=O)NC(=O)[C@H](CC(N)=O)NC1=O [desmopressin, 1-deamino-8-D-arginine-vasopressin]",Treatment of ASD in children,ASD in children,not found to effectively treat ASD
